According to patent publication US4464378A, “Method of administering narcotic antagonists and analgesics and novel dosage forms containing same” (University of Kentucky Research Foundation, priority 1981, dated 1984):

How the values were obtained:
[1] = in vivo; conditions: rat, plasma, 0.03 mg; for AUC(0-inf): Area under the blood level curve (AUC ^.infin.0); for AUC(0-inf) / concentration at 1 min / concentration at 0.05 h / concentration at 10 min / concentration at 20 min / concentration at 0.5 h / concentration at 0.75 h / concentration at 1 h / concentration at […] / concentration at 2 h / concentration at 3 h / concentration at 5 min: 30 μg/rat; for concentration at 1 min / concentration at 0.05 h / concentration at 10 min / concentration at 20 min / concentration at 0.5 h / concentration at 0.75 h / concentration at 1 h / concentration at […] / concentration at 2 h / concentration at 3 h / concentration at 5 min: Plasma Level; for concentration at 0.05 h: 3 min; for concentration at 0.5 h: 30 min; for concentration at 0.75 h: 45 min; for concentration at 1 h: 60 min; for concentration at […]: 90 min; for concentration at 2 h: 120 min; for concentration at 3 h: 180 min
[2] = 30 μg/rat
[3] = nasal, individual rats I, II, III
[4] = po, Mean, oral (intraduodenal), mean of 3 rats

C=CCN1CC[C@]23c4c5ccc(O)c4O[C@H]2C(=O)CC[C@@]3(O)[C@H]1C5 [naloxone]
Tmax [1]: ~5 min
bioavailability [1]: 1.5%
half-life [1]: 52.1 min
AUC(0-inf) ([1]; Mean, nasal, mean of 3 rats): 25.3 ng·h/mL
AUC(0-inf) [1, 3]: 31.7 ng·h/mL
concentration at 1 min ([1]; Mean, nasal, mean of 3 rats): 23.3 ng/mL
concentration at 0.05 h ([1]; Mean, nasal, mean of 3 rats): 38.3 ng/mL
concentration at 10 min ([1]; Mean, nasal, mean of 3 rats): 36 ng/mL
concentration at 20 min ([1]; Mean, nasal, mean of 3 rats): 19.5 ng/mL
concentration at 0.5 h ([1]; Mean, nasal, mean of 3 rats): 12 ng/mL
concentration at 0.75 h ([1]; Mean, nasal, mean of 3 rats): 7.96 ng/mL
concentration at 1 h ([1]; Mean, nasal, mean of 3 rats): 6.41 ng/mL
concentration at […] ([1]; Mean, nasal, mean of 3 rats): 3.58 ng/mL
concentration at 2 h ([1]; Mean, nasal, mean of 3 rats): 2.59 ng/mL
concentration at 3 h ([1]; Mean, nasal, mean of 3 rats): 1.42 ng/mL
concentration at 0.05 h [1, 3]: 41.2 ng/mL
concentration at 5 min [1, 3]: 54.5 ng/mL
concentration at 10 min [1, 3]: 45.3 ng/mL
concentration at 20 min [1, 3]: 22.7 ng/mL
concentration at 0.5 h [1, 3]: 13.5 ng/mL
concentration at 0.75 h [1, 3]: 9.36 ng/mL
concentration at 1 h [1, 3]: 8.26 ng/mL
concentration at […] [1, 3]: 4.79 ng/mL
concentration at 2 h [1, 3]: 3.65 ng/mL
concentration at 3 h [1, 3]: 1.95 ng/mL
half-life ([1]; iv): 59.2 min
AUC(0-inf) ([1]; iv, individual rats I, II, III): 21.2 ng·h/mL
AUC(0-inf) ([1]; iv, Mean, mean of 3 rats): 25 ng·h/mL
concentration at 1 min ([1]; iv, individual rats I, II, III): 102 ng/mL
concentration at 0.05 h ([1]; iv, individual rats I, II, III): 52.3 ng/mL
concentration at 5 min ([1]; iv, individual rats I, II, III): 31.4 ng/mL
concentration at 10 min ([1]; iv, individual rats I, II, III): 15.6 ng/mL
concentration at 20 min ([1]; iv, individual rats I, II, III): 10.3 ng/mL
concentration at 0.5 h ([1]; iv, individual rats I, II, III): 7.28 ng/mL
concentration at 0.75 h ([1]; iv, individual rats I, II, III): 5.47 ng/mL
concentration at 1 h ([1]; iv, individual rats I, II, III): 4.87 ng/mL
concentration at […] ([1]; iv, individual rats I, II, III): 3.01 ng/mL
concentration at 2 h ([1]; iv, individual rats I, II, III): 2.15 ng/mL
concentration at 3 h ([1]; iv, individual rats I, II, III): 1.25 ng/mL
concentration at 1 min ([1]; iv, Mean, mean of 3 rats): 111 ng/mL
concentration at 0.05 h ([1]; iv, Mean, mean of 3 rats): 58 ng/mL
concentration at 5 min ([1]; iv, Mean, mean of 3 rats): 37.5 ng/mL
concentration at 10 min ([1]; iv, Mean, mean of 3 rats): 19.6 ng/mL
concentration at 20 min ([1]; iv, Mean, mean of 3 rats): 11.6 ng/mL
concentration at 0.5 h ([1]; iv, Mean, mean of 3 rats): 8.34 ng/mL
concentration at 0.75 h ([1]; iv, Mean, mean of 3 rats): 6.74 ng/mL
concentration at 1 h ([1]; iv, Mean, mean of 3 rats): 5.41 ng/mL
concentration at […] ([1]; iv, Mean, mean of 3 rats): 3.96 ng/mL
concentration at 2 h ([1]; iv, Mean, mean of 3 rats): 2.86 ng/mL
concentration at 3 h ([1]; iv, Mean, mean of 3 rats): 1.47 ng/mL
AUC(0-inf) [1, 4]: 0.367 ng·h/mL
concentration at 5 min [1, 4]: 0.37 ng/mL
concentration at 10 min [1, 4]: 0.34 ng/mL
concentration at 0.75 h [1, 4]: 0.11 ng/mL
concentration at 1 h [1, 4]: 0.09 ng/mL
concentration at 2 h [1, 4]: 0.06 ng/mL
absorption via the nasal route compared with the intravenous route ([2]; nasal vs intravenous): as effective as via the intravenous route
areas under the curve following intravenous and nasal administration, compared ([2]; nasal vs intravenous): not significantly different
bioavailability when administered nasally compared with intravenously ([2]; nasal vs intravenous): equivalent to the bioavailability of the drug when administered intravenously
half-life of elimination after nasal administration compared with intravenous ([2]; nasal vs intravenous): comparable to its half-life following intravenous nasal administration
bioavailability when administered nasally compared with the oral route ([2]; nasal vs oral): vastly superior to its bioavailability by the oral route
absorption from the nasal mucosa ([2]; nasal): very rapidly absorbed from the nasal mucosa
absorption from the nasal mucosa into the systemic circulation; intestinal or first pass metabolism ([2]; nasal): rapidly absorbed from the nasal mucosa into the systemic circulation without extensive intestinal or first pass metabolism
